Experimental data reported in BindingDB's records for doi:10.1111/j.1747-0285.2009.00881.x (University of Notre Dame, 2009).
pKi: −log10 of the molar value.

Molecular target: 72 kDa type IV collagenase (Homo sapiens, UniProt P08253)
Test: Inhibition Assay
Excerpt: Inhibition assay using matrix metalloproteinase (MMP-2).

Sequence of 72 kDa type IV collagenase (P08253 whole entry): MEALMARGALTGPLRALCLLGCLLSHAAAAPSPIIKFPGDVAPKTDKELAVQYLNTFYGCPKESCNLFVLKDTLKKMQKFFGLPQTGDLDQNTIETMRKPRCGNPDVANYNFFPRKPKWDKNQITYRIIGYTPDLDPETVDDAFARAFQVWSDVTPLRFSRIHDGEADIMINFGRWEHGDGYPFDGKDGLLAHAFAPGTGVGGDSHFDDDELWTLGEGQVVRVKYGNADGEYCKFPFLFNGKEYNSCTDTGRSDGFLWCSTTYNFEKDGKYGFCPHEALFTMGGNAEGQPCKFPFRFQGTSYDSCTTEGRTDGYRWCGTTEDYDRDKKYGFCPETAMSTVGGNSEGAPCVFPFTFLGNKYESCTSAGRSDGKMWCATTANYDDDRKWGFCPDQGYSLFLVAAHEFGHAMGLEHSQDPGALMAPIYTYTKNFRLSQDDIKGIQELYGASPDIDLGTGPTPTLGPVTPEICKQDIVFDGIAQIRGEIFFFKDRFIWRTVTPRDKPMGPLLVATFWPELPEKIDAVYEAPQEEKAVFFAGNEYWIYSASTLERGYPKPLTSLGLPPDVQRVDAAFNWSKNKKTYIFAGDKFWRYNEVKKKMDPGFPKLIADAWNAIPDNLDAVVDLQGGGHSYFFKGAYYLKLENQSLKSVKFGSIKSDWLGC

SMILES	pKi
CC(C)(C1CS1)S(=O)(=O)c1ccc(Oc2ccccc2)cc1 (stereo not drawn) [Alpha, alpha-dimethyl derivative, 5]	< 4.40
CC1(C)SC1CS(=O)(=O)c1ccc(Oc2ccccc2)cc1 (centres undefined) [Gama, gama-dimethyl derivative, 6]	5.85
[O-][S+](CC1CS1)c1ccc(Oc2ccccc2)cc1 (centres undefined) [Sulfoxide, 4]	5.68
O=S(=O)(/C=C/CS)c1ccc(Oc2ccccc2)cc1 [Vinylsulfone, 7]	9.28
